In brackets after ≈: the same amount, converted by molar mass.
Legend:
Format in all cases: cell-based
[1] = test system: Plasmodium falciparum TM91C235; test: In vitro antimalarial [3H]-hypoxanthine incorporation serial dilution assay, TM91C235; conditions: Plasmodium falciparum; P. falciparum TM91C235, parasites exposed for 72 hours
[2] = test system: Plasmodium falciparum clone CDC/Sierra Leone I (D-6); test: In vitro antimalarial [3H]-hypoxanthine incorporation serial dilution assay, D6; conditions: Plasmodium falciparum; P. falciparum D6, parasites exposed for 72 hours
Source text: (§1) The in vitro screens for intrinsic antimalarial activity were based on modifications of the procedures described by Desjardins R E, Canfield C J, Haynes J D, Chulay J D. (Quantitative assessment of antimalarial activity in vitro by a semiautomated microdilution technique. Antimicrob Agents Chemother. 1979 December; 16(6):710-8), Chulay J D, Haynes J D, Diggs C L. (Plasmodium falciparum: Assessment of in vitro growth by [3H]hypoxanthine incorporation. Exp. Parasitol. 1983 55:138-146), and Milhous W K, Weatherly N F, Bowdre J H, Desjardins R E. (In vitro activities of and mechanisms of resistance to antifol antimalarial drugs. Antimicrob Agents Chemother. 1985 April; 27(4):525-30). The system was limited to the assessment of the intrinsic activity against the erythrocytic asexual life cycle (blood schizontocides). Two Plasmodium falciparum clones from CDC/Indochina III (W-2) and CDC/Sierra Leone I (D-6) (Oduola A M, Weatherly N F, Bowdre J H, Desjardins R E. Plasmodium falciparum: cloning by single-erythrocyte micromanipulation and heterogeneity in vitro. Exp Parasitol. 1988 66(1):86-95) were used for all assays. TM91C235, a multiple drug resistant isolate from Thailand, was used for the prescreening assay. W-2 is resistant to chloroquine, quinine, and pyrimethamine and susceptible to mefloquine. D-6 tends to be more resistant to mefloquine and susceptible to chloroquine, quinine, and pyrimethamine. All documents cited in this paragraph are incorporated by reference in their entirety.
(§2) All parasites were maintained in continuous long term cultures in RPMI-1640 medium supplemented with 6% washed human A positive (A+) (erythrocytes, 25 mM Hepes, […], and 10% heat inactivated A+ human plasma or ALBUMAX® (lipid-rich bovine serum albumin; Invitrogen, Carlsbad, Calif.). All cultures and assays were conducted at 37° C. under an atmosphere of 5% CO2 and 5% O2, with a balance of N2.
(§3) The prescreening assay uses TM91C235 diluted at a 0.4% parasitemia in a 1% hematocrit in folic acid free and p-aminobenzoic acid free media RPMI-1640 and ALBUMAX®. One mg of the compound is typically dissolved in 100 μl of dimethyl sulfoxide (DMSO). The compound is further diluted in culture medium (FF) with ALBUMAX® for the first initial starting concentration. The rest of the stock drug solution was kept at −70° C. The isolate was preexposed, in duplicate, at three concentrations (25,000 ng/ml, 2,500 ng/ml, and 25 ng/ml) of the test compound for 48 hr in a 96-well microtiter plate (MTP) using the BIOMEK® 2000 automated laboratory workstation. Each MTP contains chloroquine as control to assess the relative activity of the compound and to monitor the response of TM91C235.
(§4) After the preincubation, [^3H]-hypoxanthine was added to each well of the MTP. (The assay relies on the incorporation of radiolabeled hypoxanthine by the parasites, which indicates reproduction, and inhibition of isotope incorporation was attributed to activity of known or candidate antimalarial drugs). After 72 hr of total incubation time, the MTP were frozen to lyse the erythrocytes and parasites. The parasite DNA was recovered by harvesting the lysate onto glass-fiber filter plates using a Packard FilterMate™ Cell Harvester. The radioactivity was counted on a Packard TopCount™ microplate scintillation counter. The results were recorded as counts per minutes (CPM) per well at each drug concentration divided by the arithmetic mean of the CPM from the three untreated infection parasite control wells.
(§5) The serial dilution assay was conducted using the same assay conditions and stock solution of the compound used for the preliminary screen, described above. Both the D-6 and the W-2 clones were used. The compounds were diluted two-fold over 11 different concentration ranges with a starting concentration that was based on the preliminary screen. […]

[3] = test system: Plasmodium falciparum clone CDC/Indochina III (W-2); test: In vitro antimalarial [3H]-hypoxanthine incorporation serial dilution assay, W2; conditions: Plasmodium falciparum, W2, 72 h, P. falciparum W2, parasites exposed for 72 hours
Source text: as §1, §2, §3, §4, §5

SMILES | IC50 [1] | IC50 [2] | IC50 [3]
CC[C@H]1OC(=O)[C@H](C)[C@@H](O[C@H]2C[C@@](C)(OC)[C@@H](O)[C@H](C)O2)[C@H](C)[C@@H](O[C@@H]2O[C@H](C)C[C@H](N(C)C)[C@H]2O)[C@](C)(O)C[C@@H](C)CN(CCCNC(=S)Nc2cccc3ccccc23)[C@H](C)[C@@H](O)[C@]1(C)O [Compound 9] | 0.159 µg/mL (≈ 0.163 µM) | 0.144 µg/mL (≈ 0.147 µM) | 0.17 µg/mL (≈ 0.174 µM)
CC[C@H]1OC(=O)[C@H](C)[C@@H](O[C@H]2C[C@@](C)(OC)[C@@H](O)[C@H](C)O2)[C@H](C)[C@@H](O[C@@H]2O[C@H](C)C[C@H](N(C)C)[C@H]2O)[C@](C)(O)C[C@@H](C)CN(CCCN(CCC#N)C(=O)Nc2ccccc2C(F)(F)F)[C@H](C)[C@@H](O)[C@]1(C)O [Compound 23] | 0.153 µg/mL (≈ 0.148 µM) | 0.535 µg/mL (≈ 0.518 µM) | 0.0626 µg/mL (≈ 0.0606 µM)
CC[C@H]1OC(=O)[C@H](C)[C@@H](O)[C@H](C)[C@@H](O[C@@H]2O[C@H](C)C[C@H](N(C)C)[C@H]2O)[C@](C)(O)C[C@@H](C)CN(CCCN(CCC#N)C(=S)NCCCc2ccccc2)[C@H](C)[C@@H](O)[C@]1(C)O [Compound 32] | 0.106 µg/mL (≈ 0.122 µM) | 0.155 µg/mL (≈ 0.18 µM) | –
CC[C@H]1OC(=O)[C@H](C)[C@@H](O)[C@H](C)[C@@H](O[C@@H]2O[C@H](C)C[C@H](N(C)C)[C@H]2O)[C@](C)(O)C[C@@H](C)CN(CCCNC(=S)Nc2cccc3ccccc23)[C@H](C)[C@@H](O)[C@]1(C)O [Compound 29] | 0.297 µg/mL (≈ 0.363 µM) | 0.954 µg/mL (≈ 1.16 µM) | 0.172 µg/mL (≈ 0.21 µM)
CC[C@H]1OC(=O)[C@H](C)[C@@H](O[C@H]2C[C@@](C)(OC)[C@@H](O)[C@H](C)O2)[C@H](C)[C@@H](O[C@@H]2O[C@H](C)C[C@H](N(C)C)[C@H]2O)[C@](C)(O)C[C@@H](C)CN(CCCNC(=O)NS(=O)(=O)c2ccc(C)cc2)[C@H](C)[C@@H](O)[C@]1(C)O [Compound 20] | 1.06 µg/mL (≈ 1.07 µM) | > 0.797 µg/mL | > 1.76 µg/mL
CC[C@H]1OC(=O)[C@H](C)[C@@H](O[C@H]2C[C@@](C)(OC)[C@@H](O)[C@H](C)O2)[C@H](C)[C@@H](O[C@@H]2O[C@H](C)C[C@H](N(C)C)[C@H]2O)[C@](C)(O)C[C@@H](C)CN(CCCN(CCC#N)C(=O)NCc2ccccc2)[C@H](C)[C@@H](O)[C@]1(C)O [Compound 18] | 0.522 µg/mL (≈ 0.534 µM) | 0.776 µg/mL (≈ 0.793 µM) | 0.405 µg/mL (≈ 0.414 µM)
CC[C@H]1OC(=O)[C@H](C)[C@@H](O)[C@H](C)[C@@H](O[C@@H]2O[C@H](C)C[C@H](N(C)C)[C@H]2O)[C@](C)(O)C[C@@H](C)CN(CCCN(CCC#N)C(=O)Nc2ccc3ccccc3c2)[C@H](C)[C@@H](O)[C@]1(C)O [Compound 34] | 0.191 µg/mL (≈ 0.223 µM) | 0.203 µg/mL (≈ 0.237 µM) | –
CC[C@H]1OC(=O)[C@H](C)[C@@H](O)[C@H](C)[C@@H](O[C@@H]2O[C@H](C)C[C@H](N(C)C)[C@H]2O)[C@](C)(O)C[C@@H](C)CN(CCCN(CCC#N)C(=O)NC(C)c2cccc3ccccc23)[C@H](C)[C@@H](O)[C@]1(C)O (some centres unmarked) [Compound 26] | 0.39 µg/mL (≈ 0.441 µM) | > 0.797 µg/mL | 0.361 µg/mL (≈ 0.408 µM)
CC[C@H]1OC(=O)[C@H](C)[C@@H](O[C@H]2C[C@@](C)(O)[C@@H](O)[C@H](C)O2)[C@H](C)[C@@H](O[C@@H]2O[C@H](C)C[C@H](N(C)C)[C@H]2O)[C@](C)(O)C[C@@H](C)CN(CCCNC(=O)Nc2cccc3ccccc23)[C@H](C)[C@@H](O)[C@]1(C)O [Compound 8] | 0.143 µg/mL (≈ 0.151 µM) | 0.268 µg/mL (≈ 0.282 µM) | 0.176 µg/mL (≈ 0.186 µM)
CC[C@H]1OC(=O)[C@H](C)[C@@H](O)[C@H](C)[C@@H](O[C@@H]2O[C@H](C)C[C@H](N(C)C)[C@H]2O)[C@](C)(O)C[C@@H](C)CN(CCCN(CCC#N)C(=O)Nc2ccc(Cl)cc2Cl)[C@H](C)[C@@H](O)[C@]1(C)O [Compound 33] | 0.277 µg/mL (≈ 0.316 µM) | 0.962 µg/mL (≈ 1.1 µM) | –
CC[C@H]1OC(=O)[C@H](C)[C@@H](O[C@H]2C[C@@](C)(OC)[C@@H](O)[C@H](C)O2)[C@H](C)[C@@H](O[C@@H]2O[C@H](C)C[C@H](N(C)C)[C@H]2O)[C@](C)(O)C[C@@H](C)CN(CCCN(CCC#N)C(=S)NCc2ccccc2)[C@H](C)[C@@H](O)[C@]1(C)O [Compound 12] | 0.163 µg/mL (≈ 0.164 µM) | 0.233 µg/mL (≈ 0.235 µM) | 0.2 µg/mL (≈ 0.201 µM)
CC[C@H]1OC(=O)[C@H](C)[C@@H](O[C@H]2C[C@@](C)(OC)[C@@H](O)[C@H](C)O2)[C@H](C)[C@@H](O[C@@H]2O[C@H](C)C[C@H](N(C)C)[C@H]2O)[C@](C)(O)C[C@@H](C)CN(CCCN(CCC#N)C(=O)Nc2cc(OC)c(OC)c(OC)c2)[C@H](C)[C@@H](O)[C@]1(C)O [Compound 16] | 0.272 µg/mL (≈ 0.258 µM) | 0.487 µg/mL (≈ 0.462 µM) | > 1.76 µg/mL
CC[C@H]1OC(=O)[C@H](C)[C@@H](O[C@H]2C[C@@](C)(OC)[C@@H](O)[C@H](C)O2)[C@H](C)[C@@H](O[C@@H]2O[C@H](C)C[C@H](N(C)C)[C@H]2O)[C@](C)(O)C[C@@H](C)CN(CCCNC(=O)NS(=O)(=O)c2ccccc2Cl)[C@H](C)[C@@H](O)[C@]1(C)O [Compound 22] | 1.53 µg/mL (≈ 1.52 µM) | > 0.797 µg/mL | > 1.76 µg/mL
CC[C@H]1OC(=O)[C@H](C)[C@@H](O[C@H]2C[C@@](C)(OC)[C@@H](O)[C@H](C)O2)[C@H](C)[C@@H](O[C@@H]2O[C@H](C)C[C@H](N(C)C)[C@H]2O)[C@](C)(O)C[C@@H](C)CN(CCCNC(=O)NS(=O)(=O)c2ccccc2C)[C@H](C)[C@@H](O)[C@]1(C)O [Compound 21] | > 1.62 µg/mL | 0.427 µg/mL (≈ 0.432 µM) | 1 µg/mL (≈ 1.01 µM)
CC[C@H]1OC(=O)[C@H](C)[C@@H](O[C@H]2C[C@@](C)(OC)[C@@H](O)[C@H](C)O2)[C@H](C)[C@@H](O[C@@H]2O[C@H](C)C[C@H](N(C)C)[C@H]2O)[C@](C)(O)C[C@@H](C)CN(CCCN(CCC#N)C(=O)NC(C)c2cccc3ccccc23)[C@H](C)[C@@H](O)[C@]1(C)O (some centres unmarked) [Compound 10] | 0.16 µg/mL (≈ 0.153 µM) | 0.254 µg/mL (≈ 0.244 µM) | 0.308 µg/mL (≈ 0.296 µM)
CC[C@H]1OC(=O)[C@H](C)[C@@H](O)[C@H](C)[C@@H](O[C@@H]2O[C@H](C)C[C@H](N(C)C)[C@H]2O)[C@](C)(O)C[C@@H](C)CN(CCCNC(=S)NCc2ccccc2)[C@H](C)[C@@H](O)[C@]1(C)O [Compound 25] | 1.21 µg/mL (≈ 1.54 µM) | > 0.797 µg/mL | > 1.76 µg/mL
CC[C@H]1OC(=O)[C@H](C)[C@@H](O[C@H]2C[C@@](C)(OC)[C@@H](O)[C@H](C)O2)[C@H](C)[C@@H](O[C@@H]2O[C@H](C)C[C@H](N(C)C)[C@H]2O)[C@](C)(O)C[C@@H](C)CN(CCCN(CCC#N)C(=S)NCCc2ccccc2)[C@H](C)[C@@H](O)[C@]1(C)O [Compound 5] | 0.0732 µg/mL (≈ 0.0726 µM) | 0.091 µg/mL (≈ 0.0902 µM) | 0.169 µg/mL (≈ 0.167 µM)
CC[C@H]1OC(=O)[C@H](C)[C@@H](O)[C@H](C)[C@@H](O[C@@H]2O[C@H](C)C[C@H](N(C)C)[C@H]2O)[C@](C)(O)C[C@@H](C)CN(CCCN(CCC#N)C(=S)NCCc2ccccc2)[C@H](C)[C@@H](O)[C@]1(C)O [Compound 31] | 0.157 µg/mL (≈ 0.184 µM) | 0.192 µg/mL (≈ 0.226 µM) | –
